# Patent US7041652B1, “Ascorbate-isoquercetin compositions” (Merck Patent GmbH, priority 1999, dated 2006)
# Entries after “also recorded” stand apart in the source; their conditions may differ.
# What was measured:
# [1] = earlier pharmacokinetic studies (Hollman and Katan, 1997; Hollman, 1997); cited from earlier work
# [2] = intestinal absorption of isoquercetin; format: in vivo; conditions: human intestinal tract; compared with rutin and quercetin aglycone
# Excerpt: Therefore, the increased effectivity of ascorbate protectioin may be caused by the fact that isoquercetin contains a glucose molecule. This glucose molecule seems to be the reason why isoquercetin is able to use the sodium-dependent glucose transport pathway of the intestinal brush-border membrane in its absorption process (Gee et al., 1998).
structure (smiles),measurement,setting,value
"O=c1c(O[C@@H]2O[C@H](CO)[C@@H](O)[C@H](O)[C@H]2O)c(-c2ccc(O)c(O)c2)oc2cc(O)cc(O)c12 [isoquercetin, quercetin-3-O-glucoside]",absorption rate and bioavailability,[1],excellent absorption rate and bioavailability; also recorded: absorbed better than rutin and quercetin
same,absorption,[2],better than that of pure aglycone; also recorded: far better absorption rates in human intestinal tract than rutin or the quercetin aglycone
